Test results from patent publication US8173428B2, “LNA oligonucleotides and the treatment of cancer” (Santaris Pharma A/S, priority 2004, dated 2012).
Oligonucleotides are written 5' to 3', each unit as a sugar letter and its base; * is a phosphorothioate linkage, no mark a phosphodiester; rarer units and linkages stand in square brackets, end groups in braces. Plain capitals give the bases only. l = locked nucleic acid (LNA); [5mC] = 5-methylcytosine; d = 2'-deoxy (DNA)

What was measured:
[1] = Stability in mouse plasma; format: in vitro ADME; details: 20 μM, 37° C., up to 96 hours
Procedure: Stability of 20 μM SEQ ID NO. 2 and SEQ ID NO. 24 in human and mouse plasma (Li-Heparine (Taconic, M&B)) at 37° C. at different time aliquots: 0, 1, 2, 4, 24, 48 and 96 hours. A commercially available ladder was also included (10 and 20 mer are visible on the PAGE). (see FIG. 1)

[2] = system: Survivin mRNA; assay: Tumour analysis: Survivin mRNA after intratumoural injection; format: in vivo, Balb/cA-nu mice; details: 25 mg/kg intratumoral, 6 times over 2 weeks, sampling 24 hours after last dose, versus saline
Procedure: Model: PC-3 human prostate cancer cells (ECACC) are mixed with Matrigel and injected s.c. into both flanks of female Balb/cA-nu mice on Day 0.
Administration: Oligonucleotides i.p. (see FIG. 8) or intratumoural (see FIG. 9), Taxol i.v., all according to schedule
Total RNA isolation: Approximately 20 mg tumour tissue was homogenized in 400 μl RTL buffer (Qiagen) supplemented with 1% mercaptoethanol. Total RNA was isolated using RNeasy mini kit (Qiagen) according to the manufacture's instructions.
cDNA synthesis: First strand synthesis was performed using OmniScript Reverse Transcriptase kit according to the manufacturer's instructions (Qiagen). […] Protein levels were analysed on individual tumours by western blotting (see FIG. 9). Real time PCR analysis: To determine the relative Survivin mRNA level treated and untreated tumours, the generated cDNA was used in quantitative PCR analysis using an iCycler from BioRad. The cDNA was diluted 5-fold and 8 μl was mixed with 52 μl Taqman probe master mix containing 30 μl Platinum Quantitative PCR SuperMix UDG 2×PCR master mix (Invitrogen), 3 μl 20× Taqman probe and primer mix (forward primer: 5′-[…]-3′ (SEQ ID NO. 29), final 0.9 μM. Reverse primer: 5′-[…]-3′ (SEQ ID NO. 30), final 0.6 μM and taqman probe: FAM-5′-[…]-TAMRA-3′ (SEQ ID NO. 31), final 0.1 μM) and 19 μl H2O. […]

[3] = system: mice; assay: i.v. acute toxicity study in mice; format: in vivo
From the text: For SEQ ID NO. 2 the following was found among others in preclinical toxicity studies: […]

5′-^MeCsTs^MeCsAsastscscsastsgsgs^MeCsAsGsc-3′ (l[5mC]*lT*l[5mC]*lA*dA*dT*dC*dC*dA*dT*dG*dG*l[5mC]*lA*lG*dC) [SEQ ID NO. 2]
Stability in mouse plasma (degradation products) [1]: No degradation products | Survivin mRNA level in tumours [2]: reduced levels of both mRNA and Survivin protein | maximum non-lethal dose [3]: 1000 mg/kg
